Results from publication PMC11783400, “Assessment of Potential Drug–Drug Interactions for Novel Oral Melanocortin‐1 Receptor Agonist Dersimelagon” (Pharmacology Research & Perspectives, 2025).

Tests used:
CYP1A2 = target: T1, CYP1A2 (Homo sapiens, UniProt P05177); assay: CYP activity inhibition in human liver microsomes; format: biochemical; settings: read-out: IC50 (μM) / Direct inhibition
T1 construct: native enzyme in human liver microsomes
T1 sequence (P05177 2-516): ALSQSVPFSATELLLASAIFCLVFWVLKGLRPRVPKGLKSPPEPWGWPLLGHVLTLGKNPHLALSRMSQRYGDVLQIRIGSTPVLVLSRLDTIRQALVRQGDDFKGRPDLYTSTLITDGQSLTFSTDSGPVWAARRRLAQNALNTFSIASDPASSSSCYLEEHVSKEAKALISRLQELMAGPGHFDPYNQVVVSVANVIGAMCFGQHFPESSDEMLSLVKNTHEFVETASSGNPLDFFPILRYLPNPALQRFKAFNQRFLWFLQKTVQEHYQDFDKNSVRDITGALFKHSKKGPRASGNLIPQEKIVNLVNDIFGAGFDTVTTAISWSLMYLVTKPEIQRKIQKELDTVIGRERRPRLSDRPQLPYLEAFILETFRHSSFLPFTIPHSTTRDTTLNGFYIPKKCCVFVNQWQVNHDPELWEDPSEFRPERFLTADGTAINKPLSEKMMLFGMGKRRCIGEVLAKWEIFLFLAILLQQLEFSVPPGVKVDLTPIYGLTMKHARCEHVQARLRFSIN
Excerpt: CYP activity inhibition in human liver microsomes on CYP1A2

CYP2C8 = target: T2, CYP2C8 (Homo sapiens, UniProt P10632); assay: CYP activity inhibition in human liver microsomes; format: biochemical; settings: read-out: IC50 (μM) / Direct inhibition
T2 construct: native enzyme in human liver microsomes
T2 sequence (P10632 1-490): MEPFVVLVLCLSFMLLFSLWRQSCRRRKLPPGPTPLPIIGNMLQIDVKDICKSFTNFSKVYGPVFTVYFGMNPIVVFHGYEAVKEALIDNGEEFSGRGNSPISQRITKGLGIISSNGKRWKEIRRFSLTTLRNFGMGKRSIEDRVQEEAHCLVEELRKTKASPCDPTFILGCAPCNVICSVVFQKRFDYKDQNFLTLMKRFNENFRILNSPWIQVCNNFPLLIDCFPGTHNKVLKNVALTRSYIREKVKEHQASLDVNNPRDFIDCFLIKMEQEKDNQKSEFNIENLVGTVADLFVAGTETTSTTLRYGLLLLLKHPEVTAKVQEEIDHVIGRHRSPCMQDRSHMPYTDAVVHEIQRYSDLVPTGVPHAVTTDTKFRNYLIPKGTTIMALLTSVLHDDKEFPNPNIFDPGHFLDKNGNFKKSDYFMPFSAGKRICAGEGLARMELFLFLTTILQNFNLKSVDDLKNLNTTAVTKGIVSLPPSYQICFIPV
Excerpt: CYP activity inhibition in human liver microsomes on CYP2C8

P‐gp (P‐glycoprotein) = target: T3, P‐gp (P‐glycoprotein) (Homo sapiens, UniProt P08183); assay: transport inhibition in Caco-2 monolayers; format: cell-based
T3 construct: gene ABCB1; endogenous transporter in Caco-2 cell monolayers
T3 sequence (P08183 whole entry): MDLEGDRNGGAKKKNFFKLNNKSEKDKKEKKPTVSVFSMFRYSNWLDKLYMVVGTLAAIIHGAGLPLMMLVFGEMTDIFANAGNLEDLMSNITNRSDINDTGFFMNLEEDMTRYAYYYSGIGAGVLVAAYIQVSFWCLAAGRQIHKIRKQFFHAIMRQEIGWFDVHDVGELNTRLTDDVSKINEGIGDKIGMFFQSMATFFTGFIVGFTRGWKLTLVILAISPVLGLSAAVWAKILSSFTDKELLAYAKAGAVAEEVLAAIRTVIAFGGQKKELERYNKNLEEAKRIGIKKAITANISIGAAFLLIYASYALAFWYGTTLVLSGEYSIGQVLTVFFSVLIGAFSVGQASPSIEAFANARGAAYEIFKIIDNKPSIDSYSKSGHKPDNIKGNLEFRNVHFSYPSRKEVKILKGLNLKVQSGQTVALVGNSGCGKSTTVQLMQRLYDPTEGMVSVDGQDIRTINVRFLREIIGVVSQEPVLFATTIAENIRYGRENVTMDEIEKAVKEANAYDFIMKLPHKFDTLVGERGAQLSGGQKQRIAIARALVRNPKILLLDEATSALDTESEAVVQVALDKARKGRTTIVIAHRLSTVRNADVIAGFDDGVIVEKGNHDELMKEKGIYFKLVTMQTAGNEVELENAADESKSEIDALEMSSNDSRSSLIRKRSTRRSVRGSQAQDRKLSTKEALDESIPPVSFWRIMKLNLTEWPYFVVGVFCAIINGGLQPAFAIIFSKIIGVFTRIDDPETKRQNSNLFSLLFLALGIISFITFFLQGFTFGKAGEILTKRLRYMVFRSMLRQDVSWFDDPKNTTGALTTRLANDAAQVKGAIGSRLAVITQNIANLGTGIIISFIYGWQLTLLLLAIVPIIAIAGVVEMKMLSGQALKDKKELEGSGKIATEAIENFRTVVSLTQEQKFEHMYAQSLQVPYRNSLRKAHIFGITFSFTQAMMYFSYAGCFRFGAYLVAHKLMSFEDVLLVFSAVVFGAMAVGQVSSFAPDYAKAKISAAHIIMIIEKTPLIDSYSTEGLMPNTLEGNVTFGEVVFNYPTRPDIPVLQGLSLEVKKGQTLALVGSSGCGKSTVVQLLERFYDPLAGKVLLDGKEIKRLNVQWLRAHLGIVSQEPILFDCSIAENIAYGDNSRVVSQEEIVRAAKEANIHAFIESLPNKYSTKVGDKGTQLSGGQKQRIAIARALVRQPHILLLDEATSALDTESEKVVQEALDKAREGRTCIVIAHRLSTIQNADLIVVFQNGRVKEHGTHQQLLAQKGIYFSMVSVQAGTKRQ
Excerpt: transport inhibition in Caco-2 monolayers on P‐gp (P‐glycoprotein)

UGT1A3 = target: T4, UGT1A3 (Homo sapiens, UniProt P35503); assay: glucuronidation inhibition in human liver microsomes; format: biochemical; settings: substrate chenodeoxycholic acid; direct inhibition
T4 construct: native enzyme in human liver microsomes
T4 sequence (P35503 29-534): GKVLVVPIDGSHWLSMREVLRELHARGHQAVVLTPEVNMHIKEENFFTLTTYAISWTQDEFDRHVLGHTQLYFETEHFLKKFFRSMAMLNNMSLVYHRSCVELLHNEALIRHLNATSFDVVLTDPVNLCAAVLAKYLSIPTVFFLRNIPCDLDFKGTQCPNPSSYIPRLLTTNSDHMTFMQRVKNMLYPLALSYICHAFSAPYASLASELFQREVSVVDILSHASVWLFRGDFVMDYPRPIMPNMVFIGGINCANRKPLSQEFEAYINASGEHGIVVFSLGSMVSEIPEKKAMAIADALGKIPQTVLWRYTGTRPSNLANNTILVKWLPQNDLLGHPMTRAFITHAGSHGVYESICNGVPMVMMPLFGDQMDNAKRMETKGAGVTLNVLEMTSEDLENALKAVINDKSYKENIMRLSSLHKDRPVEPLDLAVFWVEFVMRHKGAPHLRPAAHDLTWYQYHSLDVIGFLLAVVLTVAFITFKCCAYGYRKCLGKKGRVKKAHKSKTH
Excerpt: glucuronidation inhibition in human liver microsomes on UGT1A3

CYP3A4 (Table 1); CYP3A = target: T5, CYP3A4 (Table 1); CYP3A (Homo sapiens, UniProt P08684); assay: time-dependent inactivation in human liver microsomes; format: biochemical; settings: read-out: Parameters / K I
T5 construct: native enzyme in human liver microsomes
T5 sequence (P08684 2-503): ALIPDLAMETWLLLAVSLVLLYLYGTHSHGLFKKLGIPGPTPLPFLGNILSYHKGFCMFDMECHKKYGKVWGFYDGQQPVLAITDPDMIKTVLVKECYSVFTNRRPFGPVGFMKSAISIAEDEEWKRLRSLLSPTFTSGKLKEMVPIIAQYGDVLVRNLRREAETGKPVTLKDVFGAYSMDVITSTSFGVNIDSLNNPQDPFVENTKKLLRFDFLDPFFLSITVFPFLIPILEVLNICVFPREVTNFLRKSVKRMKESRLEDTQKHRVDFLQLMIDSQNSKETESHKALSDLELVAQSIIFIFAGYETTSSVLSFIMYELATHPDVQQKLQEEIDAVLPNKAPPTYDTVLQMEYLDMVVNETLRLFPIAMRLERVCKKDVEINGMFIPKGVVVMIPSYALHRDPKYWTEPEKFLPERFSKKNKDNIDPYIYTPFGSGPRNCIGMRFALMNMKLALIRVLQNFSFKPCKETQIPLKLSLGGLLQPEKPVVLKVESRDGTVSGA
Excerpt: time-dependent inactivation in human liver microsomes on CYP3A4 (Table 1); CYP3A (text)

OAT3 = target: T6, OAT3 (Homo sapiens, UniProt Q8TCC7); assay: uptake inhibition in HEK293 cells expressing the transporter; format: cell-based
T6 construct: gene SLC22A8; expressed in HEK293 cells
T6 sequence (Q8TCC7 1-542): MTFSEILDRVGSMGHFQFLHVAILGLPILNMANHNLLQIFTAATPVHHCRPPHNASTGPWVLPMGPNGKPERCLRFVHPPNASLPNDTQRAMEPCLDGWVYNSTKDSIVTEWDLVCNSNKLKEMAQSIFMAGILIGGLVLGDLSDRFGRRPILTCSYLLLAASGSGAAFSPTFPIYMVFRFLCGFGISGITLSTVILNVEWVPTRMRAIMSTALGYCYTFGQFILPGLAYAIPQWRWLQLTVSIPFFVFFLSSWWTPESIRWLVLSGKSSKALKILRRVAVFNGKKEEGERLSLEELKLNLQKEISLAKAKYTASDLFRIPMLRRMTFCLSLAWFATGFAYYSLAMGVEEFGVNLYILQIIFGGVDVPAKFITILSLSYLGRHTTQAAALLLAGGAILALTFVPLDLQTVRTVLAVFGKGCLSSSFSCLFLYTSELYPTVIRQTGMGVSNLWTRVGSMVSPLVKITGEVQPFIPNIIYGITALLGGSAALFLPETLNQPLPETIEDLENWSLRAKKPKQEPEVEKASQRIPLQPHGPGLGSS
Excerpt: uptake inhibition in HEK293 cells expressing the transporter on OAT3

- IC50 (CYP1A2): > 100 µM
- IC50 (CYP2C8): 24.2 µM
- IC50 (P‐gp (P‐glycoprotein)): 0.349 µM
- IC50 (UGT1A3): 22.6 µM
- KI (inactivation) (CYP3A4 (Table 1); CYP3A): 64.1 µM
- IC50 (OAT3): 0.227 µM
SMILES: COC[C@H]1CN(C(=O)[C@]2(F)CN(C3CCCC3)C[C@H]2c2ccc(OC)cc2)C[C@@H]1c1ccc(C(F)(F)F)cc1N1CCC(C(=O)O)CC1 [dersimelagon]
